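In this assay, cells in 96-well plates receive the compound at five concentrations for 48 hours. Endpoints are linearly interpolated between the surrounding concentrations. GI50 = concentration required for 50% inhibition of growth.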 Calls of active or inactive are those of the source. Cut-off read from the data, not from the text of the source: active = GI50 up to about 1.1 µM and inactive = higher. Where only a bound is given, the exact number is not on record here.

Five compounds from ChEMBL document CHEMBL1201862, “PubChem BioAssay data set” (2004) can be followed below.

Common to all, as to test: NCI anticancer screen, dose series, 48 h
The test system of assay [1] is HL-60.
Assay [2] concerns HCT-15.
In assay [3] the test system is MDA-N.
In assay [4] the test system is OVCAR-5.
Assay [5] deals with M14.
Assay [6] relates to MCF7.
For assay [7], the system named is SF-268.
In assay [8] the test system is NCI-H522.
In assay [9] the test system is SK-MEL-2.
Assay [10] relates to OVCAR-3.
Assay [11] deals with SF-295.
For assay [12], the system named is NCI-H23.
Assay [13] deals with SNB-75.
Assay [14] concerns KM12.
The test system of assay [15] is RPMI-8226.
For assay [16], the system named is HCT-116.
For assay [17], the system named is MDA-MB-435.
The test system of assay [18] is DU-145.
The test system of assay [19] is Malme-3M.
For assay [20], the system named is SR.

With `CCOC(=O)c1sc2[n+](c1C)C(=O)/C(=C/c1ccccc1Cl)S2`, the GI50 is 4.12 µM (inactive) in assay [1]; 0.834 µM in assay [2]; 0.259 µM (active) in [3]; 14.7 µM (inactive) in assay [4]; 2.2 µM (inactive) in [5]; 3.11 µM (inactive) in assay [6]. Besides, the GI50 in assay [7] was 3.58 µM (inactive); in assay [8], 0.532 µM (active); in assay [9], 9.35 µM (inactive); in [10], 0.891 µM (active); in [11] it was 0.324 µM (active); in assay [12], 1.63 µM (inactive). Further, the GI50 in [13] is 0.425 µM (active); in assay [14] it was 0.425 µM (active); in [15] it was 0.54 µM (active); in assay [16], 0.627 µM (active); in [17], 0.281 µM (active); in [18] it was 1.85 µM (inactive). Moreover, the GI50 in assay [19] is 11 µM (inactive); in assay [20], 0.394 µM (active).

Turning to `Cc1cc2sc(C)[n+](CCCOS(=O)(=O)[O-])c2cc1C`, the GI50 is > 100 µM (inactive) in assay [1]; above 100 µM in assay [2]; > 100 µM (inactive) in assay [3]; > 100 µM (inactive) in assay [4]; > 100 µM (inactive) in [5]; 60.8 µM (inactive) in assay [6]. Besides, the GI50 is 62.5 µM (inactive) in assay [7]; 40.6 µM (inactive) in [8]; > 100 µM (inactive) in [9]; > 100 µM (inactive) in assay [10]; > 100 µM (inactive) in assay [11]; > 100 µM (inactive) in assay [12]. The GI50 in assay [13] is > 100 µM (inactive); in [14] it was > 100 µM (inactive); in [15], 53 µM (inactive); in [16], > 100 µM (inactive); in [17], > 100 µM (inactive); in [18], > 100 µM (inactive). The GI50 in assay [19] is 79.6 µM (inactive); in assay [20], 66.2 µM (inactive).

For `CC1(C)OCC2OC(n3cnc4c(N)nc(Cl)nc43)C(OS(C)(=O)=O)C2O1` (stereo not given), the GI50 in [1] is > 100 µM (inactive); in assay [2], above 100 µM; in [3], > 100 µM (inactive); in [4], > 100 µM (inactive); in assay [5], > 100 µM (inactive); in assay [6], > 100 µM (inactive). The GI50 in assay [7], in assay [8], in assay [9], in [10], in assay [11] and in [12] was > 100 µM (inactive) throughout. The GI50 in assay [13], in [14], in assay [15], in assay [16], in assay [17] and in assay [18] was > 100 µM (inactive) in each case. Further, the GI50 in assay [19] and in assay [20] was > 100 µM (inactive) in each case.

Take `CC(=O)CC(=O)Nn1c(-c2cccs2)nc2ccc(I)cc2c1=O`: the GI50 is > 66.5 µM (inactive) in assay [1]; above 57.7 µM in [2]; > 100 µM (inactive) in assay [3]; > 55.1 µM (inactive) in assay [4]; > 66.8 µM (inactive) in assay [5]; > 54.2 µM (inactive) in assay [6]. The GI50 was > 47.3 µM (inactive) in [7]; > 49.5 µM (inactive) in [8]; > 56.6 µM (inactive) in assay [9]; > 40.7 µM (inactive) in assay [10]; > 54.7 µM (inactive) in assay [11]; > 49 µM (inactive) in assay [12]. Further, the GI50 is 43.5 µM (inactive) in assay [13]; > 54.7 µM (inactive) in assay [14]; > 57.9 µM (inactive) in [15]; > 60.1 µM (inactive) in assay [16]; > 60.7 µM (inactive) in assay [17]; > 38.1 µM (inactive) in assay [18]. The GI50 in assay [19] was > 52.6 µM (inactive); in [20] it was > 100 µM (inactive).

Consider `O=c1[nH]c(=O)n(COC(CO)CO)cc1-c1ccccc1`, for which the GI50 in assay [1] is > 100 µM (inactive); in assay [2], above 100 µM; in [3], > 100 µM (inactive); in assay [4], > 100 µM (inactive); in assay [5], > 100 µM (inactive); in assay [6], > 100 µM (inactive). Further, the GI50 in assay [7], in assay [8], in assay [9], in assay [10], in assay [11] and in [12] was > 100 µM (inactive) each time. The GI50 in assay [13], in assay [14], in assay [15], in assay [16], in assay [17] and in assay [18] was > 100 µM (inactive) each time. Further, the GI50 in assay [19] and in assay [20] was > 100 µM (inactive) in each case.
